The record followed here is US20120142771A1, “BIPHENYLACETAMIDE DERIVATIVE” (Dainippon Sumitomo Pharma Co., Ltd., priority 2008, published 2012).

Structures are written as SMILES.

Format in all cases: in vivo, mice
Assay [1] concerns maximum electroshock seizure (MES) model. Put plainly: Maximum electroshock seizure (MES) model test. To be noted: for responders at 50 mg/kg / responders at 100 mg/kg: Mus musculus, po, 1 h, read-out: MES (positive number/tested number) (converted); for responders at 50 mg/kg / responders at 100 mg/kg / MES (positive number/tested number): Slc: ddY male mice, 3 per group, electrical stimulation 1 hour after administration, inhibition of hind limb extension; for anticonvulsant action in maximum electroshock seizure (MES) model test: mice, oral 50 or 100 mg/kg, 1 hour after administration. The essentials: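 Male Slc: ddY mice (3 per group, 20-30 g) received compound orally at 50 or 100 mg/kg; controls got 0.5% tragacanth or 0.5% methylcellulose. One hour post-dose, corneal stimulation (60 Hz, 25 mA, 0.2 s) induced tonic hind-limb extensor convulsion.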

In assay [2] the test system is 6 Hz psychomotor seizure model. Put plainly: 6 Hz psychomotor seizure model. To be noted: mice; for efficacy in 6 Hz psychomotor seizure model: oral administration at a dose of 100 mg/kg; for 6 Hz (Positive number/tested number) / ED50: oral; for 6 Hz (Positive number/tested number): dose 100 mg/kg, 30 minutes or 1 hour after administration; for ED50: Mus musculus, 6 Hz psychomotor seizure model, read-out: ED50. On the procedure: Test 4: Test of 6 Hz Psychomotor Seizure Model
Similar to Tests 1 and 2, Test 4 evaluates the anticonvulsant action of medicaments. However, unlike Tests 1 and 2, the animal model used herein represents clinical phenotypes of seizures resistant to existing antiepileptic drugs. […] After 30 minutes or an hour of administration, their corneas were electrically stimulated (6 Hz, 32 mA, 3 seconds) to induce symptoms of myoclonus in their forelimbs, Straub tail, and immobility. […] To the control mice, 0.5% tragacanth solution, 0.5% methylcellulose solution, or olive oil was administered.

Assay [3] has as its system subcutaneously pentetrazol-injected model (scPTZ). Put plainly: Subcutaneously pentetrazol-injected model (scPTZ) test. To be noted: pentetrazol 85 mg/kg s.c. after 1 hour; for responders at 50 mg/kg / responders at 100 mg/kg: Mus musculus, po, 1 h, read-out: scPTZ (positive number/tested number) (converted); for responders at 50 mg/kg / responders at 100 mg/kg / scPTZ (positive number/tested number): Slc: ddY male mice, 3 per group, observed 30 minutes for clonic convulsion; for anticonvulsant action in subcutaneously pentetrazol-injected model (scPTZ) test: mice, oral 50 or 100 mg/kg. The essentials:
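Male Slc:ddY mice (20-30 g, 3 per group) dosed orally at 50 or 100 mg/kg; pentetrazol 85 mg/kg given subcutaneously 1 h later. Controls received 0.5% tragacanth or 0.5% methylcellulose vehicle.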

As for `NC(=O)C(O)c1ccccc1-c1cc(F)ccc1Cl` (centres unmarked) [Example 185, 2-(2′-chloro-5′-fluorobiphenyl-2-yl)-2-hydroxyacetamide], the responders at 50 mg/kg in assay [1] (50 mg/kg oral) and in assay [3] (50 mg/kg oral) was 66.7% in each case. Moreover, the responders at 100 mg/kg in assay [1] (100 mg/kg oral) and in assay [3] (100 mg/kg oral) was 100% throughout. Further, the “anticonvulsant action in maximum electroshock seizure (MES) model test” value (“anticonvulsant action … (MES) model test” below) in assay [1] was “anticonvulsant action was observed”. The “efficacy in 6 Hz psychomotor seizure model” value (from here on “efficacy”) in assay [2] was “potent efficacy”. Further, the “6 Hz (Positive number/tested number)” value in assay [2] is recorded as 5/5/100. Also, the “anticonvulsant action in subcutaneously pentetrazol-injected model (scPTZ) test” value (“anticonvulsant action … (scPTZ) test” for short) in assay [3] is “anticonvulsant action was observed”.

Regarding `NC(=O)C(F)c1ccccc1-c1ccccc1` (single isomer, unassigned) [Example 210, 2-(Biphenyl-2-yl)-2-fluoroacetamide], the “MES (positive number/tested number)” value in assay [1] (50 mg/kg oral) is listed as 2/3; in assay [1] (100 mg/kg oral) it was 3/3. The “anticonvulsant action … (MES) model test” value in assay [1] is listed as “anticonvulsant action was observed”. Also, in assay [2], the “6 Hz (Positive number/tested number)” value is recorded as 4/5/100. For the same compound, the “scPTZ (positive number/tested number)” value in assay [3] (50 mg/kg oral) and in assay [3] (100 mg/kg oral) was 3/3 throughout. Further, the “anticonvulsant action … (scPTZ) test” value in assay [3] is listed as “anticonvulsant action was observed”.

In the case of `NC(=O)Cc1ccccc1-c1ccc(Cl)cc1Cl` [Example 78, 2-(2′,4′-dichlorobiphenyl-2-yl)acetamide], the values for the responders at 50 mg/kg in assay [1] (50 mg/kg oral) and in assay [3] (50 mg/kg oral) were 100% and 0%, respectively. Moreover, the responders at 100 mg/kg was 100% in assay [1] (100 mg/kg oral) and 66.7% in assay [3] (100 mg/kg oral). In addition, the “6 Hz (Positive number/tested number)” value in assay [2] is reported as 3/5/100.

Turning to `NC(=O)Cc1ccccc1-c1cc(Cl)ccc1C(F)(F)F` [Example 91, 2-[5′-chloro-2′-(trifluoromethyl)biphenyl-2-yl]acetamide], the results for the responders at 50 mg/kg in assay [1] (50 mg/kg oral) and in assay [3] (50 mg/kg oral) were 100% and 66.7%, respectively. In addition, the responders at 100 mg/kg was 100% in assay [1] (100 mg/kg oral) and 66.7% in assay [3] (100 mg/kg oral). For the same compound, in assay [1], the “anticonvulsant action … (MES) model test” value is on record as “anticonvulsant action was observed”. In addition, the “efficacy” value in assay [2] is “potent efficacy”. In addition, the “6 Hz (Positive number/tested number)” value in assay [2] is 5/5/100. Besides, in assay [3], the “anticonvulsant action … (scPTZ) test” value is reported as “anticonvulsant action was observed”.

As to `NC(=O)C(O)c1ccccc1-c1cccc(F)c1` (single isomer, unassigned) [Example 211, 2-(3′-Fluorobiphenyl-2-yl)-2-hydroxyacetamide], the results for the responders at 50 mg/kg in assay [1] (50 mg/kg oral) and in assay [3] (50 mg/kg oral) were 100% and 66.7%, respectively. For the same compound, the responders at 100 mg/kg in assay [1] (100 mg/kg oral) is 100%; in assay [3] (100 mg/kg oral), 66.7%. Besides, the “anticonvulsant action … (MES) model test” value in assay [1] is recorded as “anticonvulsant action was observed”. Further, in assay [2], the median effective dose (ED50) (usually the dose that gives a 50% effect, or the effect in half of the subjects) came to 100 mg/kg. Moreover, in assay [2], the “6 Hz (Positive number/tested number)” value was 5/10/100. The “anticonvulsant action … (scPTZ) test” value in assay [3] was “anticonvulsant action was observed”.

`NC(=O)Cc1ccccc1-c1cc(F)cc(Cl)c1` [Example 80, 2-(3′-chloro-5′-fluorobiphenyl-2-yl)acetamide]: the responders at 50 mg/kg in assay [1] (50 mg/kg oral) was 100%; in assay [3] (50 mg/kg oral), 66.7%. The responders at 100 mg/kg in assay [1] (100 mg/kg oral) and in assay [3] (100 mg/kg oral) was 100% each time. In addition, the “anticonvulsant action … (MES) model test” value in assay [1] is “anticonvulsant action was observed”. In addition, the “6 Hz (Positive number/tested number)” value in assay [2] is 4/5/100. In addition, the “anticonvulsant action … (scPTZ) test” value in assay [3] is “anticonvulsant action was observed”.

Consider `NC(=O)Cc1ccccc1-c1cc(Cl)cc(Cl)c1Cl` [Example 64, 2-(2′,3′,5′-Trichlorobiphenyl-2-yl)acetamide], for which the responders at 50 mg/kg is 100% in assay [1] (50 mg/kg oral) and 0% in assay [3] (50 mg/kg oral). In addition, the responders at 100 mg/kg in assay [1] (100 mg/kg oral) and in assay [3] (100 mg/kg oral) was 100% in each case. The “6 Hz (Positive number/tested number)” value in assay [2] is given as 3/5/100.

On to `NC(=O)C(O)c1ccccc1-c1ccccc1Cl` (centres unmarked) [Example 190, 2-(2′-chlorobiphenyl-2-yl)-2-hydroxyacetamide], for which the responders at 50 mg/kg in assay [1] (50 mg/kg oral) and in assay [3] (50 mg/kg oral) was 66.7% throughout. For the same compound, the responders at 100 mg/kg in assay [1] (100 mg/kg oral) is 100%; in assay [3] (100 mg/kg oral), 66.7%. Besides, in assay [1], the “anticonvulsant action … (MES) model test” value is recorded as “anticonvulsant action was observed”. Also, the “efficacy” value in assay [2] is “potent efficacy”. The “6 Hz (Positive number/tested number)” value in assay [2] is 5/5/100. Besides, in assay [3], the “anticonvulsant action … (scPTZ) test” value is “anticonvulsant action was observed”.

As to `NC(=O)C(O)c1cc(F)ccc1-c1cc(Cl)cc(Cl)c1` (centres unmarked) [Example 189, 2-(3′,5′-dichloro-4-fluorobiphenyl-2-yl)-2-hydroxyacetamide], the responders at 50 mg/kg in assay [1] (50 mg/kg oral) was 100%; in assay [3] (50 mg/kg oral), 33.3%. For the same compound, the responders at 100 mg/kg in assay [1] (100 mg/kg oral) and in assay [3] (100 mg/kg oral) was 66.7% throughout. Moreover, in assay [2], the “6 Hz (Positive number/tested number)” value is given as 3/5/100.

Turning to `NC(=O)C(O)c1ccccc1-c1cccc(F)c1` (centres unmarked) [Example 178, 2-(3′-fluorobiphenyl-2-yl)-2-hydroxyacetamide], the responders at 50 mg/kg was 66.7% in assay [1] (50 mg/kg oral) and 100% in assay [3] (50 mg/kg oral). The responders at 100 mg/kg in assay [1] (100 mg/kg oral) and in assay [3] (100 mg/kg oral) was 100% in each case. In addition, the “anticonvulsant action … (MES) model test” value in assay [1] is listed as “anticonvulsant action was observed”. In assay [2], the ED50 was found to be 117 mg/kg. Also, the “6 Hz (Positive number/tested number)” value in assay [2] was 5/10/100. For the same compound, the “anticonvulsant action … (scPTZ) test” value in assay [3] was “anticonvulsant action was observed”.

Consider `NC(=O)C(O)c1ccccc1-c1cc(Cl)cc(Cl)c1` (centres unmarked) [Example 183, 2-(3′,5′-dichlorobiphenyl-2-yl)-2-hydroxyacetamide], for which the responders at 50 mg/kg in assay [1] (50 mg/kg oral) is 100%; in assay [3] (50 mg/kg oral), 66.7%. The figures for the responders at 100 mg/kg in assay [1] (100 mg/kg oral) and in assay [3] (100 mg/kg oral) were 100% and 66.7%, respectively. For the same compound, the “anticonvulsant action … (MES) model test” value in assay [1] was “anticonvulsant action was observed”. Besides, the “6 Hz (Positive number/tested number)” value in assay [2] is reported as 4/5/100. In addition, in assay [3], the “anticonvulsant action … (scPTZ) test” value is “anticonvulsant action was observed”.

Turning to `NC(=O)Cc1ccc(F)cc1-c1ccccc1` [Example 39, 2-(5-fluorobiphenyl-2-yl)acetamide], the responders at 50 mg/kg in assay [1] (50 mg/kg oral) is 100%; in assay [3] (50 mg/kg oral), 33.3%. The responders at 100 mg/kg in assay [1] (100 mg/kg oral) was 100%; in assay [3] (100 mg/kg oral), 66.7%. Moreover, the “6 Hz (Positive number/tested number)” value in assay [2] was 1/5/100.

Consider `NC(=O)Cc1ccccc1-c1cccc(Br)c1` [Example 52, 2-(3′-bromobiphenyl-2-yl)acetamide], for which the responders at 50 mg/kg is 66.7% in assay [1] (50 mg/kg oral) and 33.3% in assay [3] (50 mg/kg oral). The responders at 100 mg/kg in assay [1] (100 mg/kg oral) is 100%; in assay [3] (100 mg/kg oral), 66.7%. The “6 Hz (Positive number/tested number)” value in assay [2] is recorded as 1/5/100.

For the compound `NC(=O)C(O)c1ccccc1-c1ccccc1F` (centres unmarked) [Example 60, 2-(2′-Fluorobiphenyl-2-yl)-2-hydroxyacetamide], the responders at 50 mg/kg was 100% in assay [1] (50 mg/kg oral) and 33.3% in assay [3] (50 mg/kg oral). The responders at 100 mg/kg in assay [1] (100 mg/kg oral) is 100%; in assay [3] (100 mg/kg oral), 66.7%. Moreover, the “6 Hz (Positive number/tested number)” value in assay [2] is given as 1/5/100.

Take `NC(=O)C(O)c1ccccc1-c1cccc(F)c1` (single isomer, unassigned) [Example 212, 2-(3′-Fluorobiphenyl-2-yl)-2-hydroxyacetamide]: the “MES (positive number/tested number)” value in assay [1] (50 mg/kg oral) and in assay [1] (100 mg/kg oral) was 3/3 throughout. Further, in assay [1], the “anticonvulsant action … (MES) model test” value is “anticonvulsant action was observed”. Also, the “6 Hz (Positive number/tested number)” value in assay [2] is given as 1/5/100. In addition, the “scPTZ (positive number/tested number)” value in assay [3] (50 mg/kg oral) and in assay [3] (100 mg/kg oral) was 2/3 in each case. The “anticonvulsant action … (scPTZ) test” value in assay [3] was “anticonvulsant action was observed”.
